Data reported in ChEMBL document CHEMBL2040800 (J Med Chem, 2012).
Converted amounts (≈) assume the structure as drawn. The source made the active and inactive calls. No cut-off for these calls is given here.

Assays:
[1] = Oral bioavailability in Sprague-Dawley rat at 21.7 mg/kg; format: ADME, organism-based; conditions: in vivo
Plasmodium falciparum [2] = test: Antimalarial activity against chloroquine-resistant Plasmodium falciparum K1 after 24 hrs by hypoxanthine incorporation assay; format: functional, organism-based; conditions: K1, 24 h
[3] = Total plasma clearance in Sprague-Dawley rat at […], iv; format: ADME, organism-based; design: dose 4.7 mg/kg, route intravenous
[4] = Volume of distribution at steady state in Sprague-Dawley rat at […], iv; format: ADME, organism-based; design: dose 4.7 mg/kg, route intravenous; conditions: in vivo, read-out: Vdss
Rattus norvegicus [5] = test: Toxicity in Sprague-Dawley rat assessed as impaired coordination at 30 mg/kg, po administered as single dose; format: organism-based; design: dose 30 mg/kg, route oral; conditions: in vivo
[6] = Apparent terminal half life in Sprague-Dawley rat at […], iv; format: ADME, organism-based; design: dose 4.7 mg/kg, route intravenous; conditions: in vivo, read-out: betat1/2(app) (converted)
[7] = Apparent terminal half life in Sprague-Dawley rat at 21.7 mg/kg, po; format: ADME, organism-based; design: dose 21.7 mg/kg, route oral; conditions: in vivo, read-out: betat1/2(app) (converted)
Plasmodium berghei [8] = test: Antimalarial activity against Plasmodium berghei ANKA expressing GFP infected in Sprague-Dawley rat assessed as reduction in parasitemia at 10 mg/kg, po administered as single dose measured on day 3 post-infection by flow cytometry; format: functional; design: scale not given: the % may be the effect or the level left
Plasmodium falciparum [9] = test: Antimalarial activity against chloroquine-sensitive Plasmodium falciparum NF54 after 24 hrs by hypoxanthine incorporation assay; format: functional, organism-based; conditions: NF54, 24 h
Plasmodium berghei [10] = test: Antimalarial activity against Plasmodium berghei ANKA expressing GFP infected in Sprague-Dawley rat assessed as mean survival days of host at 10 mg/kg, po administered as single dose; format: functional
[11] = Half life in human liver microsomes at 1 uM; format: ADME, Microsome
[12] = AUC (0 to infinity) in Sprague-Dawley rat at […], iv; format: ADME, organism-based; design: time infinity, dose 4.7 mg/kg, route intravenous; conditions: plasma
[13] = Kinetic solubility of the compound in phosphate buffer after 30 mins by nephelometry at pH 6.5; format: physicochemical; conditions: read-out: Kinetic_solubility
[14] = Tmax in Sprague-Dawley rat at 21.7 mg/kg, po; format: ADME, organism-based; design: dose 21.7 mg/kg, route oral; conditions: in vivo
[15] = Intrinsic clearance in human liver microsomes at 1 uM up to 60 mins; format: ADME, Microsome; conditions: read-out: CLH
Plasmodium berghei [16] = test: Antimalarial activity against Plasmodium berghei ANKA expressing GFP infected in Sprague-Dawley rat assessed as mean survival days of host at 30 mg/kg, po administered as single dose; format: functional
Rattus norvegicus [17] = test: Toxicity in Sprague-Dawley rat assessed as impaired coordination at 50 mg/kg, po administered as 4 doses measured post-third dose; format: organism-based; design: dose 50 mg/kg, route oral; conditions: in vivo
[18] = Cmax in Sprague-Dawley rat at 21.7 mg/kg, po; format: ADME, organism-based; design: dose 21.7 mg/kg, route oral; conditions: in vivo
[19] = AUC (0 to infinity) in Sprague-Dawley rat at 21.7 mg/kg, po; format: ADME, organism-based; design: time infinity, dose 21.7 mg/kg, route oral; conditions: plasma
Plasmodium berghei [20] = test: Antimalarial activity against Plasmodium berghei ANKA expressing GFP infected in Sprague-Dawley rat assessed as reduction in parasitemia at 30 mg/kg, po administered as single dose measured on day 3 post-infection by flow cytometry; format: functional; design: scale not given: the % may be the effect or the level left
[21] = Plasma protein binding in human by reverse phase gradient HPLC analysis; format: ADME, cell-free; conditions: read-out: PPB (converted)
[22] = Partition coefficient, log D of the compound at pH 7.4 by phase gradient HPLC analysis; format: physicochemical; conditions: octanol/water
[23] = Volume of distribution at steady state in Sprague-Dawley rat at 3.2 mg/kg, iv; format: ADME, organism-based; design: dose 3.2 mg/kg, route intravenous; conditions: plasma, read-out: Vdss
Plasmodium berghei [24] = test: Antimalarial activity against Plasmodium berghei ANKA expressing GFP infected in Sprague-Dawley rat assessed as total cure from parasite at 30 mg/kg, po administered as single dose measured on day 30 post-infection by flow cytometry; format: functional, organism-based; design: dose 30 mg/kg
[25] = Total plasma clearance in Sprague-Dawley rat at 3.2 mg/kg, iv; format: ADME, organism-based; design: dose 3.2 mg/kg, route intravenous
[26] = AUC (0 to infinity) in Sprague-Dawley rat at 3.2 mg/kg, iv; format: ADME, organism-based; design: time infinity, dose 3.2 mg/kg, route intravenous; conditions: plasma
Plasmodium berghei [27] = test: Antimalarial activity against Plasmodium berghei ANKA expressing GFP infected in Sprague-Dawley rat assessed as total cure from parasite at 100 mg/kg, po administered as single dose measured on day 30 post-infection by flow cytometry; format: functional, organism-based; design: dose 100 mg/kg
[28] = AUC (0 to infinity) in Sprague-Dawley rat at 20.2 mg/kg, po; format: ADME, organism-based; design: time infinity, dose 20.2 mg/kg, route oral; conditions: plasma
[29] = Toxicity in rabbit ventricular wedge assessed as change in […] at 2 uM; format: tissue-based, Oryctolagus cuniculus, Cardiac ventricle
Plasmodium berghei [30] = test: Antimalarial activity against Plasmodium berghei ANKA expressing GFP infected in Sprague-Dawley rat assessed as mean survival days of host at 3 mg/kg, po administered as single dose; format: functional
[31] = Oral bioavailability in Sprague-Dawley rat at 20.2 mg/kg; format: ADME, organism-based; conditions: in vivo
Cytochrome P450 2C9 = Cytochrome P450 2C9 (Homo sapiens, UniProt P11712); test: Inhibition of CYP2C9-mediated tolbutamide methylhydroxylation in human liver microsomes; format: ADME, Microsome
Sequence of Cytochrome P450 2C9 (P11712 whole entry): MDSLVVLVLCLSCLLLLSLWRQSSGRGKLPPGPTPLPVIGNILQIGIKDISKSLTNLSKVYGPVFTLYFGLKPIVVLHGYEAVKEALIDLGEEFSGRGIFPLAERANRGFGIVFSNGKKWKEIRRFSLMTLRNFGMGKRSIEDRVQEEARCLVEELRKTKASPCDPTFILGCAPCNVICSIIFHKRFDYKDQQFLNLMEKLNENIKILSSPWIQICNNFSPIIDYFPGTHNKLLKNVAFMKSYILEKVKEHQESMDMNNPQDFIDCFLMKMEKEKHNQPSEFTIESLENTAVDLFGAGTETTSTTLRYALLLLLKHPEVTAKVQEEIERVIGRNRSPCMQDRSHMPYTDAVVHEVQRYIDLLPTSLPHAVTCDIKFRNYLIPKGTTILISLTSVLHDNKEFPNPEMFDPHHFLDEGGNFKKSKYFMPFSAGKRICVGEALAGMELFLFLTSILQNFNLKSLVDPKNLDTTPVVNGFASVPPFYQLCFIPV

Cytochrome P450 1A2 = biological target: T1, Cytochrome P450 1A2 (Homo sapiens, UniProt P05177); test: Inhibition of CYP1A2-mediated phenacetin O-deethylation in human liver microsomes; format: ADME, Microsome
T1 sequence (P05177 whole entry): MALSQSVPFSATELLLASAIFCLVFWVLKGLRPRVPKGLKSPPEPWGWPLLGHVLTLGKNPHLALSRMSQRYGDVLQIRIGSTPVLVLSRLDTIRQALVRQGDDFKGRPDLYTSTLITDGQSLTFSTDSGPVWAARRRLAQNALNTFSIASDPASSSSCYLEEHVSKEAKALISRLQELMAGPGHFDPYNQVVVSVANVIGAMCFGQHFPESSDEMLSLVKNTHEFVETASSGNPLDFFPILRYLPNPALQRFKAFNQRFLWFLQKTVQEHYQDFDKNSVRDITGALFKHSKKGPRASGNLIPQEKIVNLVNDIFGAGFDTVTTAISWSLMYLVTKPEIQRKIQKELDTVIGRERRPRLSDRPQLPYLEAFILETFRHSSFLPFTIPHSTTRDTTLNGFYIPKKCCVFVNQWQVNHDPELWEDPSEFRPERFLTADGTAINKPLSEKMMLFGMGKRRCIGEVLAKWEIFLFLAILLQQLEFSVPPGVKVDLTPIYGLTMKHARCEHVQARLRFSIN

Plasmodium berghei [32] = test: Antimalarial activity against Plasmodium berghei ANKA expressing GFP infected in po dosed Sprague-Dawley rat assessed as reduction in parasitemia administered as single dose measured on day 3 post-infection by flow cytometry; format: functional; conditions: 72 h
Cytochrome P450 3A4/3A5 = Cytochrome P450 3A4/3A5 (Homo sapiens, UniProt P08684+P20815); test: Inhibition of CYP3A4/CYP3A5-mediated testosterone 6beta-hydroxylation in human liver microsomes; format: ADME, Microsome
L6 = test: Cytotoxicity against rat L6 cells after 72 hrs by alamar blue assay; format: cell-based; conditions: l6, 72 h
Salmonella typhimurium = test: Genotoxicity in Salmonella typhimurium by Ames test; format: toxicity, organism-based; conditions: salmonella enterica subsp. enterica serovar typhimurium
Plasmodium berghei [33] = test: Antimalarial activity against Plasmodium berghei ANKA expressing GFP infected in Sprague-Dawley rat assessed as mean survival days of host at 50 mg/kg, po administered as 4 doses; format: functional
Plasmodium berghei [34] = test: Antimalarial activity against Plasmodium berghei ANKA expressing GFP infected in Sprague-Dawley rat assessed as reduction in parasitemia at 100 mg/kg, po administered as single dose measured on day 3 post-infection by flow cytometry; format: functional; design: scale not given: the % may be the effect or the level left
[35] = Solubility of the compound at 10 uM; format: physicochemical
Plasmodium berghei [36] = test: Antimalarial activity against Plasmodium berghei ANKA expressing GFP infected in Sprague-Dawley rat assessed as reduction in parasitemia at 3 mg/kg, po administered as single dose measured on day 3 post-infection by flow cytometry; format: functional; design: scale not given: the % may be the effect or the level left
[37] = Apparent terminal half life in Sprague-Dawley rat at 20.2 mg/kg, po; format: ADME, organism-based; design: dose 20.2 mg/kg, route oral; conditions: in vivo, read-out: betat1/2(app) (converted)
[38] = Cmax in Sprague-Dawley rat at 20.2 mg/kg, po; format: ADME, organism-based; design: dose 20.2 mg/kg, route oral; conditions: in vivo
Plasmodium berghei [39] = test: Antimalarial activity against Plasmodium berghei ANKA expressing GFP infected in Sprague-Dawley rat assessed as total cure from parasite at 50 mg/kg, po administered as 4 doses measured on day 30 post-infection by flow cytometry; format: functional, organism-based; design: dose 50 mg/kg
Cytochrome P450 2C19 = Cytochrome P450 2C19 (Homo sapiens, UniProt P33261); test: Inhibition of CYP2C19-mediated (S)-mephenytoin 4'-hydroxylation in human liver microsomes; format: ADME, Microsome
Sequence of Cytochrome P450 2C19 (P33261 whole entry): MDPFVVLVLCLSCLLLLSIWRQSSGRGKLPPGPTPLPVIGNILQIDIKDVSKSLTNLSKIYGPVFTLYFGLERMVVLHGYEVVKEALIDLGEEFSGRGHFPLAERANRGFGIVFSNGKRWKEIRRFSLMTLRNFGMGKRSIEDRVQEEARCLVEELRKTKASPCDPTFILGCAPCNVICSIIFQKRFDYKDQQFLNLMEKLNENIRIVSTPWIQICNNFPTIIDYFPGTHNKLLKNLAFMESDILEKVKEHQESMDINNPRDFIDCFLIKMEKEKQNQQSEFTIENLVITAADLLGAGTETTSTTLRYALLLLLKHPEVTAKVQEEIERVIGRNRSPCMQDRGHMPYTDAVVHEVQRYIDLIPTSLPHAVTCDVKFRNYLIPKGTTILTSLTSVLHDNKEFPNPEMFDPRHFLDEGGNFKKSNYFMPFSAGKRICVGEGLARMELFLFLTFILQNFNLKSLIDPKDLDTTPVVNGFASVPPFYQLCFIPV

[40] = Toxicity in rabbit ventricular wedge assessed as change in TP-e at 2 uM; format: tissue-based, Oryctolagus cuniculus, Cardiac ventricle
[41] = Apparent terminal half life in Sprague-Dawley rat at 3.2 mg/kg, iv; format: ADME, organism-based; design: dose 3.2 mg/kg, route intravenous; conditions: in vivo, read-out: betat1/2(app) (converted)
Plasmodium berghei [42] = test: Antimalarial activity against Plasmodium berghei ANKA expressing GFP infected in Sprague-Dawley rat assessed as mean survival days of host at 100 mg/kg, po administered as single dose; format: functional
[43] = Tmax in Sprague-Dawley rat at 20.2 mg/kg, po; format: ADME, organism-based; design: dose 20.2 mg/kg, route oral; conditions: in vivo
Cytochrome P450 2D6 = Cytochrome P450 2D6 (Homo sapiens, UniProt P10635); test: Inhibition of CYP2D6-mediated dextromethorphan O-demethylation in human liver microsomes; format: ADME, Microsome
Sequence of Cytochrome P450 2D6 (P10635 whole entry): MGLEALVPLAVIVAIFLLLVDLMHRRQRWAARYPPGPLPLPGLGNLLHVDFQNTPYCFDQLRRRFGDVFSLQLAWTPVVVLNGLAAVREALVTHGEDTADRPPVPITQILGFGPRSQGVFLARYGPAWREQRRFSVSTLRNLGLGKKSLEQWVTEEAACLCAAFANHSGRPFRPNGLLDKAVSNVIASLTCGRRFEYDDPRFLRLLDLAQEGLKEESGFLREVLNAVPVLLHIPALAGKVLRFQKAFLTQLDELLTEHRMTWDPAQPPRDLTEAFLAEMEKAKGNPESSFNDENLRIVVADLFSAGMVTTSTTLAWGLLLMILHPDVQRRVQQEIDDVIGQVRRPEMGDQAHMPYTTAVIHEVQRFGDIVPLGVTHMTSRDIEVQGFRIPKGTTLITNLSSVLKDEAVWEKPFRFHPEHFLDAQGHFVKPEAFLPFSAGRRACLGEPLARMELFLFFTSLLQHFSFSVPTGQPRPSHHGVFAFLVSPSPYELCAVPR

[44] = Toxicity in rabbit ventricular wedge assessed as change in QT at 2 uM; format: tissue-based, Oryctolagus cuniculus, Cardiac ventricle
Plasmodium berghei [45] = test: Antimalarial activity against Plasmodium berghei ANKA expressing GFP infected in Sprague-Dawley rat assessed as reduction in parasitemia at 50 mg/kg, po administered as 4 doses measured on day 4 post-infection by flow cytometry; format: functional; design: scale not given: the % may be the effect or the level left

CS(=O)(=O)c1ccc(-c2cnc(N)c(-c3ccc(C(F)(F)F)cc3)c2)cc1
bioavailability [1]: 26%
IC50 (Plasmodium falciparum [2]): 0.02 µM
clearance [3]: 29 mL/min/kg
Vd [4]: 8 L/kg
Activity (Rattus norvegicus [5]): Non-toxic
half-life [6]: 11.3 h
half-life [7]: 6 h
Activity (Plasmodium berghei [8]): 98%
IC50 (Plasmodium falciparum [9]): 0.019 µM
MSD (Plasmodium berghei [10]): 9 days
half-life at 1 µM [11]: > 4.17 h
AUC(0-inf) [12]: 6.98 µM·h
solubility kinetic at 0.5 h [13]: < 1.6 µg/mL
Tmax [14]: 3.25 h
microsomal CLint at 1 µM [15]: < 7 µL/min/mg
MSD (Plasmodium berghei [16]): 15 days
Activity (Rattus norvegicus [17]): Toxic
Cmax [18]: 1 µM
AUC(0-inf) [19]: 8.27 µM·h
Activity (Plasmodium berghei [20]): 97.3%
fraction unbound [21]: 0.038
chromatographic logD [22]: 3.4

CS(=O)(=O)c1ccc(-c2cnc(N)c(-c3ccc(C(F)(F)F)nc3)c2)cc1 [MMV-048]
Vd [23]: 2.7 L/kg
Activity (Plasmodium berghei [24]): Active
clearance [25]: 6.5 mL/min/kg
AUC(0-inf) [26]: 23.4 µM·h
IC50 (Plasmodium falciparum [2]): 0.025 µM
Activity (Plasmodium berghei [27]): Active
AUC(0-inf) [28]: 74.2 µM·h
Activity [29]: Non-toxic
MSD (Plasmodium berghei [30]): 8 days
bioavailability [31]: 51%
Activity (Plasmodium berghei [8]): 98%
INH (Cytochrome P450 2C9): > 20 µM
INH (Cytochrome P450 1A2): > 20 µM
MSD (Plasmodium berghei [10]): 13 days
ED50 (Plasmodium berghei [32]): 0.83 mg/kg
ED90 (Plasmodium berghei [32]): 1.7 mg/kg
INH (Cytochrome P450 3A4/3A5): > 20 µM
Activity (L6): 251.4 µM
Activity (Salmonella typhimurium): Non-toxic
half-life at 1 µM [11]: > 8.33 h
MSD (Plasmodium berghei [33]): >30 days
solubility kinetic at 0.5 h [13]: 6.3 µg/mL (≈ 16 µM)
microsomal CLint at 1 µM [15]: < 1.4 µL/min/mg
MSD (Plasmodium berghei [16]): >30 days
Activity (Plasmodium berghei [34]): 99.5%
solubility [35]: Insoluble
Activity (Plasmodium berghei [36]): 98%
half-life [37]: 8.5 h
Cmax [38]: 8 µM
Activity (Plasmodium berghei [39]): Active
INH (Cytochrome P450 2C19): > 20 µM
Activity [40]: Non-toxic
half-life [41]: 7.3 h
MSD (Plasmodium berghei [42]): >30 days
Tmax [43]: 2.5 h
INH (Cytochrome P450 2D6): > 20 µM
Activity [44]: Non-toxic
Activity (Plasmodium berghei [20]): 99.3%
fraction unbound [21]: 0.139
Activity (Plasmodium berghei [45]): 99.7%
chromatographic logD [22]: 2.6
